The text below walks through data of ChEMBL document CHEMBL1124038, “Dehydro keto methylene and keto methylene analogues of substance P. Synthesis and biological activity” (J Med Chem, 1988).

The structures appear in SMILES notation. Numbered stars: 1 amine (or outer) side, 2 acyl side, 3 side chain; on linkers, the order of the positions; unused ones are H or OH. Square brackets hold non-standard residues; d marks the D form. Peptide text beside a SMILES is read from it. X1 = CC(C)C[C@H](CC(=O)CN[*:1])C(=O)[*:2]; pGlu = O=C1CC[C@@H](C(=O)O)N1

The species entered for this experiment is Rattus norvegicus. Kind of experiment: Inhibition of the degradation of [125IBH]-SP6-11 in rat hypothalamus preparations. It is filed as functional.
The term IC50 denotes the concentration needed to halve the response being measured. High values mean a need for much substance, low ones inhibition by little substance. Take `O=C1CC[C@H](C(=O)N[C@@H](Cc2ccccc2)C(=O)C/C(=C/c2ccccc2)C(=O)O)N1`: the IC50 is > 200 µM.

In turn, `CSCC[C@H](NC(=O)[C@H](CC(C)C)NC(=O)CNC(=O)[C@@H](CC(=O)[C@H](Cc1ccccc1)NC(=O)[C@H]1CCC(=O)N1)Cc1ccccc1)C(N)=O` showed an IC50 of 30 µM.

For the molecule `CSCC[C@H](NC(=O)[C@H](CC(C)C)NC(=O)CNC(=O)/C(=C\c1ccccc1)CC(=O)[C@H](Cc1ccccc1)NC(=O)[C@H]1CCC(=O)N1)C(N)=O`, 1.8 µM corresponded to half-maximal inhibition (IC50).

In the case of `CCOC(=O)/C(=C\c1ccccc1)CC(=O)[C@@H](N)Cc1ccccc1`, the IC50 is > 200 µM.

Take `CCOC(=O)/C(=C\c1ccccc1)CC(=O)[C@H](Cc1ccccc1)NC(=O)c1ccccc1`: the IC50 was > 200 µM.

For the molecule `CSCC[C@H](NC(=O)[C@@H](CC(=O)CNC(=O)[C@H](Cc1ccccc1)NC(=O)[C@H](Cc1ccccc1)NC(=O)[C@@H]1CCC(=O)N1)CC(C)C)C(N)=O` ([pGlu]FF[X1]M-NH2), inhibition was half-maximal at 50 µM (IC50). In other words, the double-digit micromolar range.

For `COC(=O)CCC(=O)[C@H](Cc1ccccc1)NC(=O)[C@H](Cc1ccccc1)NC(=O)[C@H]1CCC(=O)N1`, the half-inhibitory concentration (IC50) was > 200 µM.

For `COC(=O)CCC(=O)[C@@H](N)Cc1ccccc1`, the IC50 was > 200 µM.

`CCOC(=O)/C(=C\c1ccccc1)CC(=O)[C@H](Cc1ccccc1)NC(=O)[C@H]1CCC(=O)N1`: the 50% inhibitory concentration (IC50) was > 200 µM.
